Assays:
OVCAR 3 cells = assay: Cancer cell line proliferation assay, ATP-based cell viability (Cell Titre Glow), OVCAR 3 (CCNE1-amplified); settings: KYSE30 (normal CCNE1) GI50 vs. OVCAR 3 (CCNE1-amplified) GI50
Summary of the method: (§1)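 Luminescence read-out from an ATP-based viability reagent served as the proliferation measure. Values are GI50 estimates, i.e. concentrations producing 50% inhibition of cell growth.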

[1] = molecular target: T1, Cellular PKMYT1 Biomarker CDK1 pT14 (Homo sapiens, UniProt Q99640); assay: Inhibition of cellular PKMYT1 biomarker CDK1 pT14 in OVCAR 3 cells (immunoblot); type: cell-based; settings: 20 hours incubation
T1 construct: read-out CDK1 phospho-T14 immunoblot
T1 sequence (Q99640 1-499): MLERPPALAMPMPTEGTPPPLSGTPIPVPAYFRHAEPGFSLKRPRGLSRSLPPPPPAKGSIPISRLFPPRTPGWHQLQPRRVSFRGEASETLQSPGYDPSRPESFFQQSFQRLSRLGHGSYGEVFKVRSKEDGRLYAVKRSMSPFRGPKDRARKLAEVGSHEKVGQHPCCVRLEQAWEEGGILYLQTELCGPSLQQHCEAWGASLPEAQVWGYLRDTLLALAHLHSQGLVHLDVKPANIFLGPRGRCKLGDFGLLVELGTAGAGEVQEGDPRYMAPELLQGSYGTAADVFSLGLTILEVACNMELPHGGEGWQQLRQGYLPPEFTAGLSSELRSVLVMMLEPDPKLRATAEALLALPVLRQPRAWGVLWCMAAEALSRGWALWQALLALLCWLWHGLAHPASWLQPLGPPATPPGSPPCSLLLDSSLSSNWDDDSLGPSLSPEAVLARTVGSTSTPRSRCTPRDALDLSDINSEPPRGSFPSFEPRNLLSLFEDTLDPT
Summary of the method: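 Confluent OVCAR 3 cells treated with a compound concentration range for 20 h at 37 °C. Lysates analysed by automated capillary immunoblot for CDK1 phospho-T14, with vinculin, fluorescence detection; IC50 by regression.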

KYSE-30 cells = assay: Cancer cell line proliferation assay, ATP-based cell viability (Cell Titre Glow), KYSE-30 (normal CCNE1); settings: Homo sapiens, KYSE-30 cells (normal CCNE1), concentration that achieves 50% cell growth proliferation inhibition, read-out: KYSE30 Gl50
Summary of the method: as §1

WEE1 = molecular target: T2, WEE1 (Homo sapiens, UniProt P30291); assay: Selectivity versus WEE1 assay (ADP-Glo enzymatic assay); type: biochemical; settings: for IC50: WEE1 15 nM, ADP-Glo, banded values; for PKMYT1 vs. WEE1 selectivity: fold difference in selectivity for PKMYT1 over WEE1, banded
T2 construct: purchased Thermo Fisher PR7373A
Summary of the method: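 ADP-Glo luminescent read-out after a 60-min, 26 °C kinase reaction of 15 nM WEE1 with 30 µM ATP, in HEPES pH 7.5 buffer containing MgCl2, EGTA, Brij-35 and 1% DMSO. IC50 accepted only when replicate values agree within 3-fold and curve fit r2 exceeds 0.9.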

Human PKMYT1 = molecular target: T3, Human PKMYT1 (Homo sapiens, UniProt Q99640); assay: PKMYT1 biochemical ADP-Glo enzymatic assay; settings: PKMYT1 kinase domain 15 nM; ADP-Glo; banded values
T3 construct: Human PKMYT1 75-362 was cloned as a TEV cleavable 6xHis fusion; 6xHis (TEV cleavable) (cleaved yes); made in house; host or cells: bacterial cells
T3 sequence (Q99640 75-362): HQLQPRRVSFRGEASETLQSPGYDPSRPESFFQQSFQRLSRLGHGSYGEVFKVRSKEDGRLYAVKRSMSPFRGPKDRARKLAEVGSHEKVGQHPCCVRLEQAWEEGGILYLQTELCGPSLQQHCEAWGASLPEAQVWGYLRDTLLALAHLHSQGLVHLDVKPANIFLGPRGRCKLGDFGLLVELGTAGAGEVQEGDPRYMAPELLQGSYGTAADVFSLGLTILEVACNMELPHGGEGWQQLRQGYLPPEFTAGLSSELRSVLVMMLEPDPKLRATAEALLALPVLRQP
Summary of the method: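 IC50 values come from 10-point 3-fold series, with replicates required within 3-fold and r2 >0.9. ADP formed by PKMYT1 intrinsic ATPase (500 uM ATP, 60 min, 26° C.) was quantified by ADP-Glo luminescence. The enzyme was the TEV-cleaved kinase domain 75-362 at 15 nM, in HEPES pH 7.5 buffer.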

T2 sequence (P30291 whole entry): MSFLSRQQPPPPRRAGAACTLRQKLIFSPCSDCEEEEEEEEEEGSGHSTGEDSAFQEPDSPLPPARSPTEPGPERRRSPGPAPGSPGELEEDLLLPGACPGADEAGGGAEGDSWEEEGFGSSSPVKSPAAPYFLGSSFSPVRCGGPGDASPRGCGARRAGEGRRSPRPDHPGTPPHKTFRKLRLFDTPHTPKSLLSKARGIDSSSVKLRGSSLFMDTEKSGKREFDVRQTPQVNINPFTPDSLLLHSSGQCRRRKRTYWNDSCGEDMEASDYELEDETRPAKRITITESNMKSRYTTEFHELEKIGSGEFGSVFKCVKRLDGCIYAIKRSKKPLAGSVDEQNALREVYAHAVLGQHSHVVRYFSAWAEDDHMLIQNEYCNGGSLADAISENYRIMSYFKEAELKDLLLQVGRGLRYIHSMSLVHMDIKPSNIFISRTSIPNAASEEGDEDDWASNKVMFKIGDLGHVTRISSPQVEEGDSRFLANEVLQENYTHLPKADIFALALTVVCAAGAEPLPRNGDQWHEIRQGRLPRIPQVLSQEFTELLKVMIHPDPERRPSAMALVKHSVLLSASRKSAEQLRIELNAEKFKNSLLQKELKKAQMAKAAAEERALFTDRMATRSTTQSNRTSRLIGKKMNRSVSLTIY

| Compound | Selectivity ratio KYSE30 Gl50 vs. OVCAR3 Gl50 (OVCAR 3 cells) | IC50 [1] [nM] | GI50 (KYSE-30 cells) [nM] | IC50 (WEE1) [nM] | PKMYT1 vs. WEE1 selectivity (WEE1) | IC50 (Human PKMYT1) [nM] |
| --- | --- | --- | --- | --- | --- | --- |
| Cc1ccc(O)c(C)c1NC(=O)c1cnc(Nc2nn(CC(F)F)cc2Cl)s1 [BAA-569, 2-((4-chloro-1-(2,2-difluoroethyl)-1H-pyrazol-3-yl)amino)-N-(3-hydroxy-2,6-dimethylphenyl)thiazole-5-carboxamide] | Y (>20 fold) | < 100 | 500 to 5000 | 1000 to 11000 | X (100-<1000 fold) | < 50 |
| Cc1ccc(O)c(C)c1NC(=O)c1cnc(Nc2cc(N3CCOCC3)ncn2)s1 [BAA-571, N-(3-hydroxy-2,6-dimethylphenyl)-2-((6-morpholinopyrimidin-4-yl)amino)thiazole-5-carboxamide] | Y (>20 fold) | < 100 | 500 to 5000 | 50 to 1000 | W (10-<100 fold) | < 50 |
| Cc1nc(Nc2ncc(C(=O)Nc3c(C)ccc(O)c3C)s2)cc(N2CCOCC2)n1 [BAA-572, N-(3-hydroxy-2,6-dimethylphenyl)-2-((2-methyl-6-morpholinopyrimidin-4-yl)amino)thiazole-5-carboxamide] | Y (>20 fold) | < 100 | 500 to 5000 | 50 to 1000 | W (10-<100 fold) | < 50 |
| Cc1cn(C(CO)C(=O)N2CCCC2C(F)(F)F)nc1Nc1ncc(C(=O)Nc2c(C)ccc(O)c2C)s1 (stereo not drawn) [BAA-578, 2-((1-(3-hydroxy-1-oxo-1-(2-(trifluoromethyl)pyrrolidin-1-yl)propan-2-yl)-4-methyl-1H-pyrazol-3-yl)amino)-N-(3-hydroxy-2,6-dimethylphenyl)thiazole-5-carboxamide] | Y (>20 fold) | < 100 | > 5000 | 1000 to 11000 | X (100-<1000 fold) | < 50 |
| Cc1ccc(O)c(C)c1NC(=O)c1cnc(Nc2cc(N3CCN(C)CC3)ncn2)s1 [BAA-581, N-(3-hydroxy-2,6-dimethylphenyl)-2-((6-(4-methylpiperazin-1-yl)pyrimidin-4-yl)amino)thiazole-5-carboxamide] | Y (>20 fold) | < 100 | > 5000 | 50 to 1000 | W (10-<100 fold) | < 50 |
| Cc1ccc(O)c(C)c1NC(=O)c1cnc(Nc2nn(CCF)cc2Cl)s1 [BAA-582, 2-((4-chloro-1-(2-fluoroethyl)-1H-pyrazol-3-yl)amino)-N-(3-hydroxy-2,6-dimethylphenyl)thiazole-5-carboxamide] | Y (>20 fold) | < 100 | 500 to 5000 | 1000 to 11000 | X (100-<1000 fold) | < 50 |
| Cc1cn(C(CO)C(=O)N2CCCC2)nc1Nc1ncc(C(=O)Nc2c(C)ccc(O)c2C)s1 (stereo not drawn) [BAA-583, 2-((1-(3-Hydroxy-1-oxo-1-(pyrrolidin-1-yl)propan-2-yl)-4-methyl-1H-pyrazol-3-yl)amino)-N-(3-hydroxy-2,6-dimethylphenyl)thiazole-5-carboxamide] | Y (>20 fold) | < 100 | > 5000 | 1000 to 11000 | X (100-<1000 fold) | < 50 |
| Cc1cn(CC#N)nc1Nc1ncc(C(=O)Nc2c(C)ccc(O)c2Br)s1 [BAA-584, N-(2-Bromo-3-hydroxy-6-methylphenyl)-2-((1-(cyanomethyl)-4-methyl-1H-pyrazol-3-yl)amino)thiazole-5-carboxamide] | Y (>20 fold) | 100 to 1000 | > 5000 | 50 to 1000 | W (10-<100 fold) | < 50 |
| Cc1ccc(O)c(C)c1NC(=O)c1cnc(Nc2nn(CCF)cc2Br)s1 [BAA-585, 2-((4-bromo-1-(2-fluoroethyl)-1H-pyrazol-3-yl)amino)-N-(3-hydroxy-2,6-dimethylphenyl)thiazole-5-carboxamide] | Y (>20 fold) | < 100 | 500 to 5000 | 1000 to 11000 | X (100-<1000 fold) | < 50 |
| Cc1ccc(O)c(C)c1NC(=O)c1cnc(Nc2nn(CC#N)cc2Br)s1 [BAA-586, 2-((4-bromo-1-(cyanomethyl)-1H-pyrazol-3-yl)amino)-N-(3-hydroxy-2,6-dimethylphenyl)thiazole-5-carboxamide] | X (3-20 fold) | < 100 | 500 to 5000 | 50 to 1000 | W (10-<100 fold) | < 50 |
| Cc1ccc(O)c(C)c1NC(=O)c1cnc(Nc2nn(CC(F)F)cc2Br)s1 [BAA-587, 2-((4-bromo-1-(2,2-difluoroethyl)-1H-pyrazol-3-yl)amino)-N-(3-hydroxy-2,6-dimethylphenyl)thiazole-5-carboxamide] | Y (>20 fold) | < 100 | 500 to 5000 | 1000 to 11000 | X (100-<1000 fold) | < 50 |
| CCc1cn(CCF)nc1Nc1ncc(C(=O)Nc2c(C)ccc(O)c2C)s1 [BAA-588, 2-((4-ethyl-1-(2-fluoroethyl)-1H-pyrazol-3-yl)amino)-N-(3-hydroxy-2,6-dimethylphenyl)thiazole-5-carboxamide] | Y (>20 fold) | < 100 | 500 to 5000 | 1000 to 11000 | X (100-<1000 fold) | < 50 |
| CCc1cn(CC(F)F)nc1Nc1ncc(C(=O)Nc2c(C)ccc(O)c2C)s1 [BAA-589, 2-((1-(2,2-difluoroethyl)-4-ethyl-1H-pyrazol-3-yl)amino)-N-(3-hydroxy-2,6-dimethylphenyl)thiazole-5-carboxamide] | Y (>20 fold) | < 100 | > 5000 | 1000 to 11000 | X (100-<1000 fold) | < 50 |

From patent publication US20260297042A1, “BIARYLAMIDE DERIVATIVES AND THEIR USE AS PKMYT1 INHIBITORS” (CANCER RESEARCH TECHNOLOGY LIMITED, priority 2023, published 2026)
